Some test systems named below: IGROV1 ovarian; XF 498 CNS; HOP-62 NSCLC; UACC-257 melanoma; EKVX NSCLC; NCI-H23 lung; K-562 leukemia; KM20L2 colon; SN12C renal; SNB-19 CNS.
Holding throughout (test): NCI anticancer screen, dose series, 48 h

Where “and” joins values, the source holds several entries; their conditions need not be identical. Equal entries are not always repeated.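 Cells were grown in 96-well plates and exposed to each compound for 48 hours at five concentrations; endpoints were interpolated linearly between bracketing concentrations, or set to the highest concentration if not reached. At the GI50, growth is halved. TGI: concentration producing complete growth inhibition.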

Regarding `O=C1c2ccccc2CC1C1(O)C(=O)Nc2ccccc21` (stereo not given), the TGI in the test with IGROV1 ovarian, in the test with XF 498 CNS, in the test on HOP-62 NSCLC, with UACC-257 melanoma, in the test on EKVX NSCLC and in the test on NCI-H23 lung was over 100 µM throughout. Moreover, the TGI with K-562 leukemia, in the test on KM20L2 colon, in the test with SN12C renal and in the test with SNB-19 CNS was over 100 µM each time.

With `CN(C)c1ccc(C(=C2C=CC(=[N+](C)C)C=C2)c2ccc(N(C)C)cc2)cc1`, the GI50 was 0.264 µM in the test with IGROV1 ovarian; 0.0447 µM in the test with HOP-62 NSCLC; 0.228 µM in the test with UACC-257 melanoma; 0.149 µM in the test with EKVX NSCLC; 0.04 µM with SN12C renal; 0.222 µM in the test on SNB-19 CNS. For the same compound, the TGI in the test on IGROV1 ovarian is 2.26 µM and 1.4 µM; with XF 498 CNS, 0.193 µM; in the test on HOP-62 NSCLC it was 1.11 µM and 2.43 µM; with UACC-257 melanoma it was 0.763 µM and 0.416 µM; in the test on EKVX NSCLC, 1.41 µM and 1.5 µM; in the test with NCI-H23 lung, 0.37 µM. For the same compound, the TGI in the test with K-562 leukemia was 1.1 µM and 0.143 µM; with KM20L2 colon, 0.938 µM; with SN12C renal, 1.43 µM and 0.902 µM; in the test on SNB-19 CNS, 1.48 µM and 1.71 µM.

For the compound `CCOC(=O)c1nc(-c2ccccc2)oc1OCC`, the TGI is over 100 µM in the test on IGROV1 ovarian; over 100 µM with XF 498 CNS; over 100 µM with HOP-62 NSCLC; 38.6 µM in the test on EKVX NSCLC; over 100 µM in the test on NCI-H23 lung; over 100 µM in the test with K-562 leukemia. Moreover, the TGI with KM20L2 colon, in the test with SN12C renal and with SNB-19 CNS was over 100 µM in each case.

`Cc1ccc(Sc2ccc(C)cc2[N+](=O)[O-])c([N+](=O)[O-])c1`: the TGI in the test with IGROV1 ovarian is over 100 µM; in the test on XF 498 CNS, over 100 µM; in the test on HOP-62 NSCLC, over 100 µM; with UACC-257 melanoma, over 10 µM; in the test on EKVX NSCLC, over 100 µM; in the test on NCI-H23 lung, over 100 µM. The TGI with K-562 leukemia, in the test on KM20L2 colon, with SN12C renal and in the test with SNB-19 CNS was over 100 µM each time.

With `CCOC(=O)C1=C(Nc2cccc3ccccc23)OC/C1=N\NC(=O)c1ccccc1O`, the TGI is 29.8 µM with IGROV1 ovarian; 30.7 µM in the test with XF 498 CNS; over 100 µM in the test on HOP-62 NSCLC; 77.1 µM in the test on UACC-257 melanoma; over 82.7 µM in the test with EKVX NSCLC; 15.3 µM in the test on NCI-H23 lung. In addition, the TGI is over 100 µM in the test on K-562 leukemia, 90.8 µM with KM20L2 colon, over 88 µM in the test with SN12C renal and over 100 µM in the test with SNB-19 CNS.

Consider `COc1cccc2nc3cc(C)c(C)cc3nc12`, for which the TGI in the test with IGROV1 ovarian, in the test on XF 498 CNS, in the test on HOP-62 NSCLC, in the test with UACC-257 melanoma, with EKVX NSCLC and with NCI-H23 lung was over 100 µM in each case. The TGI in the test on K-562 leukemia, in the test with KM20L2 colon, with SN12C renal and in the test with SNB-19 CNS was over 100 µM throughout.

In the case of `COC(=O)C1=C(O)c2cc3c(cc2[C@H](c2cc(OC)c(OC)c(OC)c2)C1C(=O)OC)OCO3` (stereo not given in full), the TGI was over 100 µM in the test on IGROV1 ovarian; 70 µM in the test with XF 498 CNS; over 100 µM with HOP-62 NSCLC; over 100 µM in the test on UACC-257 melanoma; over 100 µM in the test on EKVX NSCLC; over 100 µM with NCI-H23 lung. Besides, the TGI is over 100 µM in the test on K-562 leukemia, over 100 µM in the test with KM20L2 colon, 88 µM in the test with SN12C renal and over 100 µM in the test with SNB-19 CNS.

With `CC(C)C12C=CC(C)(CC1)n1c(=O)c3cc4ccccc4cc3c(=O)n12` (stereo not given), the TGI with IGROV1 ovarian, in the test on XF 498 CNS, with HOP-62 NSCLC, in the test with UACC-257 melanoma, with EKVX NSCLC and with NCI-H23 lung was over 100 µM in each case. In addition, the TGI in the test on K-562 leukemia, in the test on KM20L2 colon, with SN12C renal and in the test with SNB-19 CNS was over 100 µM in each case.

For the compound `O=C(Nc1nc(=S)c2c(ncn2CCO)[nH]1)c1ccccc1`, the TGI in the test with IGROV1 ovarian, with XF 498 CNS, in the test on HOP-62 NSCLC, in the test on UACC-257 melanoma, in the test with EKVX NSCLC and in the test on K-562 leukemia was over 100 µM each time. Further, the TGI with KM20L2 colon, in the test with SN12C renal and in the test with SNB-19 CNS was over 100 µM throughout.

Take `COc1ccc(/C=C2\CCC(CN(C)C)C2=O)cc1OC` (stereo not given): the TGI in the test on IGROV1 ovarian was found to be 33.1 µM; with XF 498 CNS it was 26.3 µM; in the test on HOP-62 NSCLC, 39.9 µM; with UACC-257 melanoma, 17 µM; with EKVX NSCLC, 34.1 µM; in the test with NCI-H23 lung, 32.3 µM. For the same compound, the TGI with K-562 leukemia turned out to be 9.12 µM; in the test on KM20L2 colon, 32.3 µM; with SN12C renal, 8.35 µM; in the test with SNB-19 CNS, 30.6 µM.

In the case of `C=C1CCc2occ(C)c2C2C1C1=C(CC(C)C1=O)C1OC12C` (stereo not given), the TGI in the test on IGROV1 ovarian, with XF 498 CNS, in the test with HOP-62 NSCLC, with UACC-257 melanoma, with EKVX NSCLC and in the test with NCI-H23 lung was over 100 µM each time. In addition, the TGI with K-562 leukemia, in the test on KM20L2 colon, in the test on SN12C renal and in the test with SNB-19 CNS was over 100 µM throughout.

Consider `C=CCNC(=O)NCCCC(NC(C)=O)C(=O)NCc1ccccc1` (stereo not given), for which the TGI in the test with IGROV1 ovarian, with XF 498 CNS, in the test with HOP-62 NSCLC, in the test with UACC-257 melanoma, in the test with EKVX NSCLC and in the test with NCI-H23 lung was over 100 µM in each case. Moreover, the TGI in the test on K-562 leukemia, with KM20L2 colon, in the test on SN12C renal and with SNB-19 CNS was over 100 µM each time.

`C/C=C/C=C/CCCCCCCCCCCCCC1(OC)C=CC(CC(=O)OC)OO1` (stereo not given): the GI50 is 0.509 µM in the test with IGROV1 ovarian; 6.59 µM with XF 498 CNS; 20 µM in the test on HOP-62 NSCLC; 5.69 µM in the test with EKVX NSCLC; 4.3 µM with NCI-H23 lung; 1.89 µM in the test on KM20L2 colon. The TGI with IGROV1 ovarian was 1.03 µM; in the test with XF 498 CNS, 15.8 µM; in the test with HOP-62 NSCLC it was 41.6 µM; with UACC-257 melanoma it was 35.4 µM; in the test on EKVX NSCLC, 17.5 µM; with NCI-H23 lung it was 14 µM. Further, the TGI in the test with K-562 leukemia is over 50.1 µM; with KM20L2 colon, 3.51 µM; with SN12C renal it was 26.3 µM; in the test with SNB-19 CNS, 31.7 µM.

As to `C[C@@H](NC1CCC[C@H]1O)c1ccccc1` (stereo not given in full), the TGI with IGROV1 ovarian, with XF 498 CNS, with HOP-62 NSCLC, in the test on UACC-257 melanoma, with EKVX NSCLC and in the test with K-562 leukemia was over 100 µM throughout. For the same compound, the TGI in the test on KM20L2 colon, with SN12C renal and with SNB-19 CNS was over 100 µM each time.

On to `OCC1OC(n2cnc3c(=S)nc[nH]c32)C(O)C1O` (stereo not given), for which the GI50 in the test with IGROV1 ovarian was 12.2 µM; in the test on HOP-62 NSCLC, 1.48 µM; in the test on UACC-257 melanoma it was over 100 µM; in the test on EKVX NSCLC, over 100 µM; with NCI-H23 lung, 4.15 µM; in the test with K-562 leukemia, 1.04 µM. Further, the GI50 in the test with SN12C renal was 34.3 µM; in the test on SNB-19 CNS, over 65.2 µM. The TGI in the test on IGROV1 ovarian was 2490 µM and > 100 µM; in the test with XF 498 CNS it was over 1400 µM; in the test on HOP-62 NSCLC, over 2500 µM; in the test on UACC-257 melanoma, over 2500 µM; with EKVX NSCLC, over 2500 µM; in the test with NCI-H23 lung, over 2500 µM. In addition, the TGI in the test with K-562 leukemia is over 2500 µM; with KM20L2 colon, over 2500 µM; in the test on SN12C renal it was over 2500 µM; in the test with SNB-19 CNS, over 1960 µM.

In the case of `O=C1NC2C=CN(Cc3ccccc3)C=C2C(=O)N2CCCC12` (stereo not given), the TGI in the test with IGROV1 ovarian, in the test on XF 498 CNS, in the test with HOP-62 NSCLC, in the test with UACC-257 melanoma, with EKVX NSCLC and with NCI-H23 lung was over 100 µM each time. Moreover, the TGI in the test on KM20L2 colon, with SN12C renal and in the test with SNB-19 CNS was over 100 µM each time.

For `CC(C)C1COC(c2cccc(C3=N[C@@H](C(C)C)CO3)n2)=N1` (stereo not given in full), the TGI in the test on IGROV1 ovarian, with XF 498 CNS, in the test with HOP-62 NSCLC, with EKVX NSCLC, with NCI-H23 lung and in the test on K-562 leukemia was over 100 µM in each case. Further, the TGI in the test with KM20L2 colon, with SN12C renal and in the test on SNB-19 CNS was over 100 µM throughout.

Values taken from PubChem BioAssay (NCI).
